# Several values for one entry are separate records, joined by “and”; a condition that tells them apart may be missing. Equal values may be shown once.
# Assays:
# AurB = AurB (Homo sapiens (Human), UniProt Q96GD4); test: KINATIV assay; type: cell-based; conditions: 1 μM, 90 minutes, BCWM.1 cells
# Method: (§1) The cells were harvested and lysed. The lysates were directly labeled with an ATP-biotin probe. Bound kinases were identified and quantitated by ACTIVX as described in Patricelli et al., Biochemistry, 2007, 46(2): 350-358. The compounds were tested in duplicates against duplicate or quadruplicate control samples.
# CDK6 = CDK6 (Homo sapiens (Human), UniProt Q00534); test: KINATIV assay; type: cell-based; conditions: 1 μM, 90 minutes, BCWM.1 cells
# Method: as §1
# CK1g2 = CK1g2 (Homo sapiens (Human), UniProt P78368); test: KINATIV assay; type: cell-based; conditions: 1 μM, 90 minutes, BCWM.1 cells
# Method: as §1
# CK2a1 = CK2a1 (Homo sapiens (Human), UniProt P68400); test: KINATIV assay; type: cell-based; conditions: 1 μM, 90 minutes, BCWM.1 cells
# Method: as §1
# [1] = system: CaMK2a, CaMK2b, CaMK2d, CaMK2g; test: KINATIV assay; type: cell-based; conditions: 1 μM, 90 minutes, BCWM.1 cells
# Method: as §1
# CaMK2g = CaMK2g (Homo sapiens (Human), UniProt Q13555); test: KINATIV assay; type: cell-based; conditions: 1 μM, 90 minutes, BCWM.1 cells
# Method: as §1
# CaMK4 = CaMK4 (Homo sapiens (Human), UniProt Q16566); test: KINATIV assay; type: cell-based; conditions: 1 μM, 90 minutes, BCWM.1 cells
# Method: as §1
# Erk1 = Erk1 (Homo sapiens (Human), UniProt P27361); test: KINATIV assay; type: cell-based; conditions: 1 μM, 90 minutes, BCWM.1 cells
# Method: as §1
# GCN2 = GCN2 (Homo sapiens (Human), UniProt Q9P2K8); test: KINATIV assay; type: cell-based; conditions: 1 μM, 90 minutes, BCWM.1 cells
# Method: as §1
# ITPK1 = ITPK1 (Homo sapiens (Human), UniProt Q13572); test: KINATIV assay; type: cell-based; conditions: 1 μM, 90 minutes, BCWM.1 cells
# Method: as §1
# KSR1, KSR2 = test: KINATIV assay; type: cell-based; conditions: 1 μM, 90 minutes, BCWM.1 cells
# Method: as §1
# LATS2 = LATS2 (Homo sapiens (Human), UniProt Q9NRM7); test: KINATIV assay; type: cell-based; conditions: 1 μM, 90 minutes, BCWM.1 cells
# Method: as §1
# LCK = LCK (Homo sapiens (Human), UniProt P06239); test: KINATIV assay; type: cell-based; conditions: 1 μM, 90 minutes, BCWM.1 cells
# Method: as §1
# LKB1 = LKB1 (Homo sapiens (Human), UniProt Q15831); test: KINATIV assay; type: cell-based; conditions: 1 μM, 90 minutes, BCWM.1 cells
# Method: as §1
# MARK1, MARK2 = test: KINATIV assay; type: cell-based; conditions: 1 μM, 90 minutes, BCWM.1 cells
# Method: as §1
# MLKL = MLKL (Homo sapiens (Human), UniProt Q8NB16); test: KINATIV assay; type: cell-based; conditions: 1 μM, 90 minutes, BCWM.1 cells
# Method: as §1
# MSK1 domain1 = MSK1 domain1 (Homo sapiens (Human), UniProt O75582); test: KINATIV assay; type: cell-based; conditions: 1 μM, 90 minutes, BCWM.1 cells
# Method: as §1
# MSK2 domain1 = MSK2 domain1 (Homo sapiens (Human), UniProt O75676); test: KINATIV assay; type: cell-based; conditions: 1 μM, 90 minutes, BCWM.1 cells
# Method: as §1
# MYO3A, MYO3B = test: KINATIV assay; type: cell-based; conditions: 1 μM, 90 minutes, BCWM.1 cells
# Method: as §1
# NEK1 = NEK1 (Homo sapiens (Human), UniProt Q96PY6); test: KINATIV assay; type: cell-based; conditions: 1 μM, 90 minutes, BCWM.1 cells
# Method: as §1
# PHKg2 = PHKg2 (Homo sapiens (Human), UniProt P15735); test: KINATIV assay; type: cell-based; conditions: 1 μM, 90 minutes, BCWM.1 cells
# Method: as §1
# PITSLRE = test: KINATIV assay; type: cell-based; conditions: 1 μM, 90 minutes, BCWM.1 cells
# Method: as §1
# SRPK1 = SRPK1 (Homo sapiens (Human), UniProt Q96SB4); test: KINATIV assay; type: cell-based; conditions: 1 μM, 90 minutes, BCWM.1 cells
# Method: as §1
# TAO1, TAO3 = test: KINATIV assay; type: cell-based; conditions: 1 μM, 90 minutes, BCWM.1 cells
# Method: as §1
# TAO2 = TAO2 (Homo sapiens (Human), UniProt Q9UL54); test: KINATIV assay; type: cell-based; conditions: 1 μM, 90 minutes, BCWM.1 cells
# Method: as §1
# TBK1 = TBK1 (Homo sapiens (Human), UniProt Q9UHD2); test: KINATIV assay; type: cell-based; conditions: 1 μM, 90 minutes, BCWM.1 cells
# Method: as §1
# TEC = TEC (Homo sapiens (Human), UniProt P42680); test: KINATIV assay; type: cell-based; conditions: 1 μM, 90 minutes, BCWM.1 cells
# Method: as §1
# TLK1 = TLK1 (Homo sapiens (Human), UniProt Q9UKI8); test: KINATIV assay; type: cell-based; conditions: 1 μM, 90 minutes, BCWM.1 cells
# Method: as §1
# TYK2 domain2 = TYK2 domain2 (Homo sapiens (Human), UniProt P29597); test: KINATIV assay; type: cell-based; conditions: 1 μM, 90 minutes, BCWM.1 cells
# Method: as §1
# ULK1 = ULK1 (Homo sapiens (Human), UniProt O75385); test: KINATIV assay; type: cell-based; conditions: 1 μM, 90 minutes, BCWM.1 cells
# Method: as §1
# Wnk1, Wnk2, Wnk4 = test: KINATIV assay; type: cell-based; conditions: 1 μM, 90 minutes, BCWM.1 cells
# Method: as §1
# Wnk1, Wnk2 = test: KINATIV assay; type: cell-based; conditions: 1 μM, 90 minutes, BCWM.1 cells
# Method: as §1
# eEF2K = eEF2K (Homo sapiens (Human), UniProt O00418); test: KINATIV assay; type: cell-based; conditions: 1 μM, 90 minutes, BCWM.1 cells
# Method: as §1
# MAPKAPK3 = MAPKAPK3 (Homo sapiens (Human), UniProt Q16644)
# Method: as §1
# PCTAIRE1 = PCTAIRE1 (Homo sapiens (Human), UniProt Q00536)
# Method: as §1
# PCTAIRE2 = PCTAIRE2 (Homo sapiens (Human), UniProt Q00537)
# Method: as §1
# PRP4 = PRP4 (Homo sapiens (Human), UniProt Q13523)
# Method: as §1
# PRPK = PRPK (Homo sapiens (Human), UniProt Q96S44)
# Method: as §1
# PCTAIRE1, PCTAIRE3 = test: KINATIV assay; type: cell-based; conditions: 1 μM, 90 minutes, BCWM.1 cells
# Text: (§2) The cells were harvested and lysed.
# PCTAIRE2, PCTAIRE3 = test: KINATIV assay; type: cell-based; conditions: 1 μM, 90 minutes, BCWM.1 cells
# Text: as §2
# Chain of TLK1 (Q9UKI8 whole entry): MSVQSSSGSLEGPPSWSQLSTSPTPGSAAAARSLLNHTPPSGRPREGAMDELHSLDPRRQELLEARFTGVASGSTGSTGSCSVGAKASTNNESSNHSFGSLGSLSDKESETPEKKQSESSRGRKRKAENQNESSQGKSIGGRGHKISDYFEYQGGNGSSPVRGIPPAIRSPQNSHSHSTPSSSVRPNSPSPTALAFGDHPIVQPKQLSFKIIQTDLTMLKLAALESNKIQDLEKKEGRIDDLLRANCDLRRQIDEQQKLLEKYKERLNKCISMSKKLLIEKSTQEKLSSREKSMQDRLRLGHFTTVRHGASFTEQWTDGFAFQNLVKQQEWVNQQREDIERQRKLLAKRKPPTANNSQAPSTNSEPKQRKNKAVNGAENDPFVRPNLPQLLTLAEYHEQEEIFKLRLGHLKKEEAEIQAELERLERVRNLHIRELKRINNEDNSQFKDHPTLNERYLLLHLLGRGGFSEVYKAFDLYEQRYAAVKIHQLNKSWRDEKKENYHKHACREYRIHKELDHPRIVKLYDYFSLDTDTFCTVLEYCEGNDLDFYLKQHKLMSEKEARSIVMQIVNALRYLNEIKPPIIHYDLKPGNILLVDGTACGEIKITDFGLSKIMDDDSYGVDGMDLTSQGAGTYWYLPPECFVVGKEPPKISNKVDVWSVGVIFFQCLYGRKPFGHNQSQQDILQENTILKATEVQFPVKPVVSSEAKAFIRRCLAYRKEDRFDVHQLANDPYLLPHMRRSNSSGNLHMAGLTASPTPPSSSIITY
# Chain of GCN2 (Q9P2K8 whole entry): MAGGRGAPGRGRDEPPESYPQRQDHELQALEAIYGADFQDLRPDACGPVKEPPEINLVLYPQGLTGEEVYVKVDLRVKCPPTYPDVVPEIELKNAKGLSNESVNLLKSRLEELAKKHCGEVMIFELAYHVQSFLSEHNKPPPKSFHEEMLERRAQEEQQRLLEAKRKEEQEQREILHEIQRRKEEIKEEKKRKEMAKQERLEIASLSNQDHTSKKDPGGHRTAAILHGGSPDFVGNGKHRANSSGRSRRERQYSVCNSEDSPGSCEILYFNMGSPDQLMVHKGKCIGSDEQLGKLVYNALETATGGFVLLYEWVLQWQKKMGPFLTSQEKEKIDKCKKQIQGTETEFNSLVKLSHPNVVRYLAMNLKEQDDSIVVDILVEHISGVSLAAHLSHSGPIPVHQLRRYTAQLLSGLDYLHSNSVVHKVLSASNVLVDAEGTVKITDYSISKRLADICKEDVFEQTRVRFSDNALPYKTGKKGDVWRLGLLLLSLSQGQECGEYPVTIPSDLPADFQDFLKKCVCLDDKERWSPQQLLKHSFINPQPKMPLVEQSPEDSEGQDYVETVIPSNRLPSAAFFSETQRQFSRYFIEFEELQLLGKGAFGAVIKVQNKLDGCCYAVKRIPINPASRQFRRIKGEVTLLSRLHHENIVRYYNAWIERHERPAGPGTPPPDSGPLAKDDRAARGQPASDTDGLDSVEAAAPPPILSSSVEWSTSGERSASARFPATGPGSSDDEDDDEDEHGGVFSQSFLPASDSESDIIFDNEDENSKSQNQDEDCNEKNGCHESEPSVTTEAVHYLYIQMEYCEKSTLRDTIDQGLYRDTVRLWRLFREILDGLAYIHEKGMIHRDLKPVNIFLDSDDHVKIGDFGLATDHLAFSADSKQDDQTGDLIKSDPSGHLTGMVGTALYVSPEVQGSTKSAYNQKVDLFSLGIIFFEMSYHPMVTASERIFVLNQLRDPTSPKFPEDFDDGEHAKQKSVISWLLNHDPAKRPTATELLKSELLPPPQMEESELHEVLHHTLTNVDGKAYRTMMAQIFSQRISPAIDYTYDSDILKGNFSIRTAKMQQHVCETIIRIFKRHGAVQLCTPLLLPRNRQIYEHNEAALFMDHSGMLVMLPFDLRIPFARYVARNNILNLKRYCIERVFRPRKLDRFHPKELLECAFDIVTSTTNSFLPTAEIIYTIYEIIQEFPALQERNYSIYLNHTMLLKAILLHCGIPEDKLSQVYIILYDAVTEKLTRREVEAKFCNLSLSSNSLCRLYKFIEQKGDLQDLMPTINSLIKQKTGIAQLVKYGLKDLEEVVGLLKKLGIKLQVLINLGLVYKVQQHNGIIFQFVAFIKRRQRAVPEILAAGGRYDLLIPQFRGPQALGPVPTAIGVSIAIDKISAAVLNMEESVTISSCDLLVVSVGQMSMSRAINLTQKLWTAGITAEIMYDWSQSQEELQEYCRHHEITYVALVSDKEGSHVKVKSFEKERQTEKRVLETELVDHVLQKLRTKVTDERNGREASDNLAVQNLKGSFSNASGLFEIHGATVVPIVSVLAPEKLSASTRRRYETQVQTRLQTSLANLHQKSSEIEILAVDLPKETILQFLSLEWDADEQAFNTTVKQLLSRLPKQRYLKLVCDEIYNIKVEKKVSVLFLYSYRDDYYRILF
# Chain of TEC (P42680 whole entry): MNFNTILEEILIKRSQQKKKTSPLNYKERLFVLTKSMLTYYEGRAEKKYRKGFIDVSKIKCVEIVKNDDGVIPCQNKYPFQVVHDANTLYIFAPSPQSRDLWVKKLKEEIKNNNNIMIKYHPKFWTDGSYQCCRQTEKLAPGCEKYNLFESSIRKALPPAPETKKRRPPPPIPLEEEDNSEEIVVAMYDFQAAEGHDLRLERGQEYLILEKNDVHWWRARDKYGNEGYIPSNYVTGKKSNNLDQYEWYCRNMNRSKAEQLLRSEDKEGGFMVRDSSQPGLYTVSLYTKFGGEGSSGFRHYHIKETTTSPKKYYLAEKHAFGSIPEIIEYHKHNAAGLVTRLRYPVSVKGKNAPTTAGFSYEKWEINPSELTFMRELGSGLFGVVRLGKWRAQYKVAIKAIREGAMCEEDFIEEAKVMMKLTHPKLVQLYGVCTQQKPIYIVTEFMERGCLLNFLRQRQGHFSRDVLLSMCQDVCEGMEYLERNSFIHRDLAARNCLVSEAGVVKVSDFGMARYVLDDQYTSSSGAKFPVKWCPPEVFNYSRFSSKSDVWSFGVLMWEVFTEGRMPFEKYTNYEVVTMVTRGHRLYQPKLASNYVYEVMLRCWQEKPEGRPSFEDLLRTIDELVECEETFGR
# Chain of TBK1 (Q9UHD2 whole entry): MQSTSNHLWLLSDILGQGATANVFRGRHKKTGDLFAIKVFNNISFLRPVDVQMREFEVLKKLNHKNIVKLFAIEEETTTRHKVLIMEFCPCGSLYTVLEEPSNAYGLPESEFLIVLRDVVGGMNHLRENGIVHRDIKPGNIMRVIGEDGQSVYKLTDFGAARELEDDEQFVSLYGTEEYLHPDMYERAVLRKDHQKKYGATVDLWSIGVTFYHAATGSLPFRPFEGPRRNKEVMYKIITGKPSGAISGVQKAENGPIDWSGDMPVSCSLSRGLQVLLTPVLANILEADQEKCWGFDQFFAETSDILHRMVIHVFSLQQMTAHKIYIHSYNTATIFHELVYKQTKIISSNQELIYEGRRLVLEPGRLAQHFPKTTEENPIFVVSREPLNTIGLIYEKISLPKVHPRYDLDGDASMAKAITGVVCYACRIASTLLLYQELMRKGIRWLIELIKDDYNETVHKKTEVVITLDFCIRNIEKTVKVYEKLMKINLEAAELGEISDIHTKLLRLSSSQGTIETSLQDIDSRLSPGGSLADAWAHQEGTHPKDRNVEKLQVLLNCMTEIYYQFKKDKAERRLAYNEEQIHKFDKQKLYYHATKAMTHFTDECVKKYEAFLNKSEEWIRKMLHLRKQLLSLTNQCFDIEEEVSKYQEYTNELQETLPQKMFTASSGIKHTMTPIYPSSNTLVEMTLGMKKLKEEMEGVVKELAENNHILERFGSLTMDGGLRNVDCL
# Chain of PHKg2 (P15735 whole entry): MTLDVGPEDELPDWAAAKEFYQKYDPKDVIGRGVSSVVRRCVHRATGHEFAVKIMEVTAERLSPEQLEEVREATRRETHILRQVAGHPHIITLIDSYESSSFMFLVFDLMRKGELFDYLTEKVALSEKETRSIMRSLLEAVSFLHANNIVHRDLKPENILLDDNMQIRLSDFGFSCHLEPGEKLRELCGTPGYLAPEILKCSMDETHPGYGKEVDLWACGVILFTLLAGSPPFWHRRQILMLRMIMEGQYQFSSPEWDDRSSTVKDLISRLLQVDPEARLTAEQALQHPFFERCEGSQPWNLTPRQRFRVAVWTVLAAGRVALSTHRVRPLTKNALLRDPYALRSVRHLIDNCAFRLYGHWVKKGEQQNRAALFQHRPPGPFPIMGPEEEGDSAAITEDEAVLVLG
# Chain of MSK1 domain1 (O75582 whole entry, the tested form may be a part): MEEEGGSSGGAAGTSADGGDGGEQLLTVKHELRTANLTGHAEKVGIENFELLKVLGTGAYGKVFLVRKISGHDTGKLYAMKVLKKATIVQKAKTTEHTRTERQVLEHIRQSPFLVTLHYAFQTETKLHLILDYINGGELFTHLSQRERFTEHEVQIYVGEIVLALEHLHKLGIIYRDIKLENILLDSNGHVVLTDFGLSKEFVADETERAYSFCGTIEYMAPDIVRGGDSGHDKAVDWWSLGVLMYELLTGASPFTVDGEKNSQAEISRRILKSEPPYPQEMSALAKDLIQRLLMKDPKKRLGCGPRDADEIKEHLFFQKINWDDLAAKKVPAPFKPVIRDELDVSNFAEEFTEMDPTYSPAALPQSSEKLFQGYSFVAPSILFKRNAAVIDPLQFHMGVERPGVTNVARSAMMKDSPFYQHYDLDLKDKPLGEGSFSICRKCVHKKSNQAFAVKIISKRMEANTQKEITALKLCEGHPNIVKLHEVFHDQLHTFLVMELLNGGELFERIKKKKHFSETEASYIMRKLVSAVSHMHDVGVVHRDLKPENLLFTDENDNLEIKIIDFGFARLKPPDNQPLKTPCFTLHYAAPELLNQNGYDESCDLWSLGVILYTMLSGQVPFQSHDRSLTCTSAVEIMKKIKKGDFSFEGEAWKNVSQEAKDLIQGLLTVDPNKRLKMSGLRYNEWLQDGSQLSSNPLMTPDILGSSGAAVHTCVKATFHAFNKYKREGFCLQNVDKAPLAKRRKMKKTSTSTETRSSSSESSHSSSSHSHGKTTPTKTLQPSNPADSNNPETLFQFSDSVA
compound,measurement,setting,value
C=CC(=O)N1CCC(Cn2ccc(Nc3ncc(C(=O)Nc4c(C)cccc4Cl)s3)n2)C1 (stereo not shown) [II-1],% change of MS signal compared to control sample,AurB,−7.2%
same,% change of MS signal compared to control sample,CDK6,6.0%
same,% change of MS signal compared to control sample,CK1g2,−1.1%
same,% change of MS signal compared to control sample,CK2a1,24.7%
same,% change of MS signal compared to control sample,[1],2.5%
same,% change of MS signal compared to control sample,CaMK2g,−17.5%
same,% change of MS signal compared to control sample,CaMK4,−10.3%
same,% change of MS signal compared to control sample,Erk1,−17.6%
same,% change of MS signal compared to control sample,GCN2,−6.2% and −4.1%
same,% change of MS signal compared to control sample,ITPK1,14.0%
same,% change of MS signal compared to control sample,"KSR1, KSR2",−8.7%
same,% change of MS signal compared to control sample,LATS2,−2.9%
same,% change of MS signal compared to control sample,LCK,92.4%
same,% change of MS signal compared to control sample,LKB1,−1.2%
same,% change of MS signal compared to control sample,"MARK1, MARK2",20.9%
same,% change of MS signal compared to control sample,MLKL,−0.8%
same,% change of MS signal compared to control sample,MSK1 domain1,−35.0%
same,% change of MS signal compared to control sample,MSK2 domain1,−33.9%
same,% change of MS signal compared to control sample,"MYO3A, MYO3B",12.9%
same,% change of MS signal compared to control sample,NEK1,14.9%
same,% change of MS signal compared to control sample,PHKg2,−9.1%
same,% change of MS signal compared to control sample,PITSLRE,−16.1%
same,% change of MS signal compared to control sample,SRPK1,−4.7%
same,% change of MS signal compared to control sample,"TAO1, TAO3",−17.2%
same,% change of MS signal compared to control sample,TAO2,−17.9%
same,% change of MS signal compared to control sample,TBK1,−30.2%
same,% change of MS signal compared to control sample,TEC,91.5% and 80.8%
same,% change of MS signal compared to control sample,TLK1,7.1% and 5.7%
same,% change of MS signal compared to control sample,TYK2 domain2,−19.0%
same,% change of MS signal compared to control sample,ULK1,19.7%
same,% change of MS signal compared to control sample,"Wnk1, Wnk2, Wnk4",−8.1%
same,% change of MS signal compared to control sample,"Wnk1, Wnk2",−3.8%
same,% change of MS signal compared to control sample,eEF2K,−3.8%
same,% change of MS signal compared to control sample,MAPKAPK3,6.2%
same,% change of MS signal compared to control sample,PCTAIRE1,38.4%
same,% change of MS signal compared to control sample,PCTAIRE2,7.7%
same,% change of MS signal compared to control sample,PRP4,6.9%
same,% change of MS signal compared to control sample,PRPK,−5.2%
same,% change of MS signal compared to control sample,"PCTAIRE1, PCTAIRE3",11.4%
same,% change of MS signal compared to control sample,"PCTAIRE2, PCTAIRE3",31.8%

# Source: patent US10844077B2, “Thiazolyl-containing compounds for treating proliferative diseases” (Dana-Farber Cancer Institute, Inc., priority 2014, dated 2020)
